# Experimental data taken from patent US12084459B2, “2-(4-{1-[6-(4-isopropyl-phenyl)-imidazo[2,1-b][1,3,4]thiadiazol-2-yl]-piperidin-4-ylmethyl}-piperazin-1-yl)-ethanol and use thereof” (Urifer Ltd., priority 2020, dated 2024).
# Columns and labels:
# [1] = insolubility level in PBS/Polysorbate-80 (Tween 80) solution; format: physicochemical; settings: 0.5 mM and 1 mM in PBS/Polysorbate-80 (Tween 80) solution at 25° C. (FIG. 1A, 1B)
# normal Epithelial cells = assay: effect on normal epithelial cells; format: cell-based; settings: FIG. 2
# Procedure: Compound (I) was dissolved in 20% hydroxypropylcyclodextrane and the volume of administration (IP) was 10 ml/kg.
# [2] = test system: metastatic colon cancer SW620 cells; assay: viability / killing of SW620 cells; format: cell-based; settings: E266 versus E260; compound (I) as tartarate salt in 0.5% Tween-80; FIG. 3
# Procedure: (§1) The compound (I), as tartarate salt was dissolved in 0.5% Tween-80 to affect the viability of several cell lines as follows.
# (§2) The effect of the compound (I) (E266) on the growth profile of cancer cells which express Fer was tested. The cells that were tested were: the metastatic colon cancer cell line—SW620, the metastatic pancreatic ductal-adenocarcinoma SU.86.86 cancer cell-line—SU.86.86, the metastatic Triple Negative breast cancer cell line—MDA-MB-231, and the metastatic prostate cancer cell-line—PC3. The effect of the compound (I) (E266) on FS11 cells, a non malignant fibroblastic cell line, was also studied.
# [3] = test system: metastatic Triple negative MDA-MB-231 Breast cancer cells; assay: viability / killing of MDA-MB-231 cells; format: cell-based; settings: E266 versus E260; compound (I) as tartarate salt in 0.5% Tween-80; FIG. 5
# Procedure: as §1, §2
# [4] = test system: metastatic adenocarcinoma PC3 prostate Cancer cells; assay: viability / killing of PC3 cells; format: cell-based; settings: E266 versus E260; compound (I) as tartarate salt in 0.5% Tween-80; FIG. 6
# Procedure: as §1, §2
compound,measurement,setting,value
"CC(C)c1ccc(-c2cn3nc(N4CCC(CN5CCN(CCO)CC5)CC4)sc3n2)cc1 [Compound E266, 2-(4-{1-[6-(4-isopropyl-phenyl)-imidazo[2,1-b][1,3,4]thiadiazol-2-yl]-piperidin-4-ylmethyl}-piperazin-1-yl)-ethanol]",solubility (insolubility level),[1],soluble to a certain extent
same,effect on normal Epithelial cells,normal Epithelial cells,no effect
same,killing metastatic colon cancer SW620 cells,[2],comparable activity
same,killing metastatic Triple negative MDA-MB-231 Breast cancer cells,[3],comparable activity
same,killing metastatic adenocarcinoma PC3 prostate Cancer cells,[4],comparable activity
